Laboratory results taken from the supplement of paper PMC10307832.

Columns and labels:
Assay in all cases: relative viability (nuclei count vs DMSO), 5 days (fraction); higher = more cells survive
Metformin = compound: CN(C)C(=N)NC(=N)N [Metformin]
Method in brief: (§1)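 Following overnight incubation at 37 °C, lung cancer cell lines in 1536-well plates were pinned with five library-drug doses (not always all listed) in √10 steps on vehicle-anchored plates. The cells then spent 5 days without medium change before a combined fix, permeabilisation and Hoechst stain, 4× imaging and MetaXpress nuclear counts. Viability is the treated-to-vehicle ratio of nuclei, taken as the median across plates. Only plates with control CV below 25% and at least one doubling passed.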

Apatinib = compound: N#CC1(c2ccc(NC(=O)c3cccnc3NCc3ccncc3)cc2)CCCC1 [Apatinib]
Method in brief: as §1

Apatinib + Bortezomib = compound: N#CC1(c2ccc(NC(=O)c3cccnc3NCc3ccncc3)cc2)CCCC1 [Apatinib] + CC(C)C[C@H](NC(=O)[C@H](Cc1ccccc1)NC(=O)c1cnccn1)B(O)O [Bortezomib] (partner 0.002 µM)
Method in brief: (§2)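 Lung cancer cell lines, seeded in 1536-well plates, were treated the following day by pin tool with a single drug or with five library-drug doses (not always all listed) in √10 steps on top of a fixed anchor-drug dose. Cells were fixed and nuclei stained in one step after 5 days, and nuclei were counted. Relative viability is the nuclei count for treated wells divided by that for vehicle wells, reported as medians of duplicate plates.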

Metformin + Alpelisib = compound: CN(C)C(=N)NC(=N)N [Metformin] + Cc1nc(NC(=O)N2CCC[C@H]2C(N)=O)sc1-c1ccnc(C(C)(C)C(F)(F)F)c1 [Alpelisib] (partner 2 µM)
Method in brief: as §2

| Cell Line | relative viability (Metformin; 10 µM) | relative viability (Metformin; 31.62 µM) | relative viability (Metformin; 100 µM) | relative viability (Metformin; 316.23 µM) | relative viability (Metformin; 1000 µM) | relative viability (Apatinib; 0.08 µM) | relative viability (Apatinib; 0.253 µM) | relative viability (Apatinib; 0.8 µM) | relative viability (Apatinib; 2.53 µM) | relative viability (Apatinib; 8 µM) | relative viability (Apatinib + Bortezomib; first compound 0.08 µM) | relative viability (Apatinib + Bortezomib; first compound 0.253 µM) | relative viability (Apatinib + Bortezomib; first compound 0.8 µM) | relative viability (Apatinib + Bortezomib; first compound 2.53 µM) | relative viability (Apatinib + Bortezomib; first compound 8 µM) | relative viability (Metformin + Alpelisib; first compound 10 µM) | relative viability (Metformin + Alpelisib; first compound 31.62 µM) | relative viability (Metformin + Alpelisib; first compound 100 µM) | relative viability (Metformin + Alpelisib; first compound 316.23 µM) | relative viability (Metformin + Alpelisib; first compound 1000 µM) |
| --- | --- | --- | --- | --- | --- | --- | --- | --- | --- | --- | --- | --- | --- | --- | --- | --- | --- | --- | --- | --- |
| LCLC-97TM1 | 0.725 | 0.978 | 0.988 | 0.843 | 1.25 | 0.792 | 0.882 | 1.02 | 0.785 | 0.662 | 0.774 | 0.775 | 0.508 | 0.344 | 0.574 | 0.285 | 0.284 | 0.339 | 0.252 | 0.346 |
| NCI-H661 | 0.801 | 0.964 | 0.911 | 0.875 | 0.893 | 0.973 | 0.908 | 0.973 | 0.929 | 0.948 | 0.935 | 0.855 | 0.685 | 0.764 | 0.584 | 0.745 | 0.404 | 0.711 | 0.757 | 0.774 |
| NCI-H650 | 1.02 | 1.1 | 0.816 | 0.953 | 1.07 | 0.979 | 0.927 | 1 | 0.745 | 0.763 | 0.888 | 0.835 | 0.834 | 0.543 | 0.754 | 1.22 | 1.29 | 1.33 | 1.23 | 1.37 |
| NCI-H1915 |  | 0.998 | 1.02 | 0.968 | 1.01 | 1.06 | 0.959 | 0.963 | 0.879 | 0.821 | 0.953 | 0.984 | 0.956 | 0.812 | 0.924 |  | 1.14 | 1.09 | 1.04 | 1.11 |
| COR-L23 | 0.979 | 1.06 | 0.974 | 0.977 | 1 | 1.04 | 0.942 | 1.05 | 0.914 | 0.865 | 1.07 | 1.03 | 0.971 | 0.793 | 0.898 | 0.633 | 0.721 | 0.72 | 0.564 | 0.7 |
| NCI-H3122 | 0.817 | 0.939 | 0.891 | 0.819 | 0.872 | 1 | 0.988 | 0.98 | 0.969 | 1.03 | 1.04 | 1.05 | 1.05 | 1.04 | 0.958 | 0.524 | 0.598 | 0.649 | 0.625 | 0.668 |
| LOU-NH91 | 0.998 | 0.865 | 0.973 | 0.997 | 0.946 | 0.94 | 0.922 | 0.871 | 0.89 | 0.898 | 0.466 | 0.492 | 0.543 | 0.443 | 0.476 | 0.762 | 0.709 | 0.806 | 0.634 | 0.642 |
| NCI-H2087 | 0.79 | 0.965 | 0.944 | 0.813 | 1.01 | 1.05 | 1.03 | 1.22 | 0.788 | 0.814 | 0.866 | 0.82 | 0.779 | 0.737 | 0.671 | 1.09 | 0.858 | 1.05 | 0.982 | 0.963 |
| NCI-H2347 | 0.918 | 1.05 | 0.969 | 0.944 | 1.1 | 1.03 | 0.964 | 1.03 | 0.858 | 0.933 | 0.847 | 1.06 | 1.13 |  | 0.891 | 0.771 | 0.968 | 1.09 | 0.961 | 1.01 |
| COR-L 105 | 1.02 | 1.04 | 1.16 | 0.994 | 0.964 | 0.976 | 1.04 | 0.85 | 0.814 | 0.855 | 1.12 | 0.897 | 0.901 | 0.605 | 0.658 | 1.14 | 1.33 | 1.07 | 0.963 | 0.802 |
| IA-LM | 0.982 | 1.16 | 1.15 | 1.07 | 1.15 | 0.955 | 0.9 | 0.994 | 0.694 | 0.535 | 0.952 | 0.976 | 0.839 | 0.536 | 0.183 |  | 1.11 | 0.906 | 0.882 | 0.88 |
| NCI-H1437 | 1.09 | 1.16 | 1.01 | 1.04 | 1.08 | 0.949 | 0.995 | 0.996 | 0.83 | 0.799 | 0.52 | 0.526 | 0.461 | 0.434 | 0.439 | 1.11 | 1.03 | 1.07 | 1.05 | 1.01 |
| ABC-1 | 0.847 | 1.2 | 0.965 | 0.948 | 0.448 |  | 1.06 | 0.86 | 0.911 | 0.703 |  | 0.333 | 0.311 | 0.335 | 0.316 |  | 1.08 | 0.999 | 0.745 | 0.349 |
| SK-LU-1 | 0.997 | 0.976 | 0.967 | 0.901 | 1.01 | 1.09 | 1.08 | 0.992 | 0.949 | 0.931 | 0.932 | 1.26 | 0.968 | 1.12 | 1 | 0.916 | 0.934 | 0.829 | 0.948 | 1.07 |
| NCI-H1755 | 0.807 | 0.891 | 0.864 | 0.853 | 0.897 | 1.02 | 1 | 1 | 1.06 | 0.951 | 1.02 | 0.959 | 0.94 | 0.945 | 0.925 | 0.767 | 0.826 | 0.796 | 0.724 | 0.798 |
| NCI-H2405 | 0.756 | 1.04 | 0.91 | 0.971 | 0.931 | 0.954 | 1.04 | 1.07 | 0.909 | 0.955 | 0.891 | 0.99 | 0.961 | 0.954 | 0.961 | 0.873 | 0.971 | 0.852 | 0.453 | 0.373 |
| NCI-H1993 | 1.03 | 0.892 | 1 | 0.872 | 1.07 | 1.01 | 0.923 | 0.889 | 0.833 | 0.869 | 1.2 | 1.11 | 0.781 | 1 | 1.07 | 0.634 | 0.67 | 0.643 | 0.62 | 0.705 |
| NCI-H322M | 0.974 | 0.922 | 0.939 | 0.951 | 0.855 | 0.964 | 0.861 | 0.894 | 0.975 | 1.07 | 1.23 | 1.19 | 1.05 | 1.24 | 1.25 | 0.83 | 0.901 | 0.845 | 0.787 | 0.779 |
| EMC-BAC-2 | 0.944 | 0.99 | 0.788 | 0.94 | 0.968 | 0.772 | 0.994 | 0.957 | 0.8 | 0.811 | 1.08 | 0.987 | 1.07 | 0.843 | 0.918 | 0.612 | 0.704 | 0.675 | 0.639 | 0.674 |
| NCI-H2228 | 0.913 | 1.08 | 0.803 | 0.907 | 1.22 | 1.13 | 1.08 | 0.993 | 0.867 | 0.846 | 1.27 | 1.17 | 1.17 | 1.02 | 0.93 | 0.917 | 0.85 |  | 0.542 | 0.898 |
| PC-14 | 1.01 | 1.09 | 0.997 | 0.971 | 0.944 | 1.03 | 1.05 | 0.829 | 0.968 | 0.956 | 0.984 | 1.01 | 0.79 | 0.776 | 0.834 | 0.829 | 0.886 | 0.873 | 0.975 | 0.893 |
| RERF-LC-KJ | 0.817 | 0.976 | 0.888 | 0.786 | 0.926 | 1.03 | 0.978 | 0.933 | 0.847 | 0.802 | 1.03 | 0.99 | 1.04 | 1.05 | 1.05 | 0.702 | 0.746 | 0.788 | 0.619 | 0.735 |
| NCI-H2085 | 0.977 | 0.939 | 0.956 | 0.977 | 0.991 | 0.986 | 0.979 | 0.953 | 0.92 | 0.971 | 1.1 | 0.831 | 1.06 | 1.13 | 1.04 | 0.956 | 0.955 | 0.944 | 0.903 | 0.985 |
| LC-2-ad |  | 1.01 | 0.943 | 0.8 | 0.767 | 0.931 | 0.991 | 0.911 | 0.856 | 0.819 | 0.937 | 1.15 | 1.22 | 0.946 | 0.832 |  | 0.812 | 0.671 | 0.69 | 0.651 |
| NCI-H1563 | 0.954 | 1.11 | 1.16 | 1.07 | 1.14 | 0.961 | 1.08 | 0.98 | 0.931 | 0.867 | 0.762 | 0.963 | 0.811 | 0.737 | 0.762 | 1.06 | 0.914 | 1.06 | 0.827 | 0.72 |
| NCI-H1703 | 1.3 | 1.42 | 0.998 | 1.06 | 1.19 | 0.784 | 0.769 | 0.355 | 0.199 | 0.19 | 0.325 | 0.297 | 0.257 | 0.175 | 0.154 | 0.491 | 0.728 | 0.474 | 0.512 | 0.368 |
| NCI-H23 | 0.919 | 1.17 | 0.969 | 0.997 | 1.13 | 1.08 | 0.977 | 0.912 | 0.937 | 0.88 | 0.91 | 1.01 | 0.908 | 0.902 | 0.805 | 0.825 | 0.941 | 0.696 | 0.715 | 0.901 |
